These are literature values, as cited in patent publication US20130116279A1, “BICYCLIC HETEROARYL INHIBITORS OF PDE4” (KALYPSYS, INC., priority 2011, published 2013).

SMILES strings stand for the structures.

The series relates to recombinant human PDE4. The following applies: inhibiting recombinant human PDE4, reported.

Regarding `COc1ccc(C2CNC(=O)C2)cc1OC1CCCC1` (stereo not shown) [rolipram], the IC50 was around 200 nM.
